Test results reported in US8618287B2, “Derivatives of triazines and uracils, their preparation and their application in human therapeutics” (Pierre Fabre Medicament, priority 2008, dated 2013).

Assays:
Human SCD-1 = target: T1, Human SCD-1 (Homo sapiens, UniProt O00767); test: Human SCD-1 enzymatic activity from microsomes of HepG2 cells (conversion of stearic acid into oleic acid); assay type: biochemical; conditions: 10 μM compound; microsomal fraction of HepG2 cells; relative to carrier 0.1% DMSO; read-out: HSCD-1 (HEPG2) % inh. (10 μM)
T1 construct: adding 125 μg of microsomal fraction of HepG2 cells; host or cells: HepG2 human hepatocarcinoma cells (microsomal fraction)
T1 sequence (O00767 1-359): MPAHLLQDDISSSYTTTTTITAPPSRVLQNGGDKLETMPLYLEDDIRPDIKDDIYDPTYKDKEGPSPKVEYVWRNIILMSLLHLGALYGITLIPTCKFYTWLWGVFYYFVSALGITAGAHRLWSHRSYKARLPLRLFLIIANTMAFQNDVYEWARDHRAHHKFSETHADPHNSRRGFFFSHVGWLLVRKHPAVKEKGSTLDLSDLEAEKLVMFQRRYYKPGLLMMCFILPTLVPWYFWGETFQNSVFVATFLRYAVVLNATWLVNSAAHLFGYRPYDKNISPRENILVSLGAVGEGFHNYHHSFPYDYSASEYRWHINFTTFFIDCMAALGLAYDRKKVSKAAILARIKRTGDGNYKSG
Procedure: In vitro: Human SCD-1 enzymatic activity from microsomes of HepG2 cells after treatment with inhibitory compounds (inhibition %).
Human hepatocarcinoma HepG2 cells (ATCC, HB-8065) are grown to confluence and then trypsinized. The cell pellet is taken up in 10 mM Tris buffer (pH 7.4), saccharose (250 mM) DTT (1 mM) and then the cells are lyzed by sonication. The microsomes are obtained after centrifugation at 10,000 g for 20 minutes a 4° C. followed by centrifugation of the supernatant at 100,000 g for 60 minutes a 4° C. The pellet is taken up in 10 mM Tris buffer (pH 7.4) saccharose (250 mM) at 4° C. and the microsomal proteins are assayed and stored at −196° C. (liquid nitrogen).
The enzymatic reaction measures the conversion of stearic acid (a C18:0 fatty acid) into oleic acid (C18:1 fatty acid) by SCD-1. The enzymatic reaction is started by adding 125 μg of microsomal fraction of HepG2 cells to tubes (total reaction volume of 500 μl) containing 62 μM of stearic acid (45 μM of stearic acid and 17 μM of [^14C] stearic acid) in a phosphate buffer at 100 mM (pH 7.16) with 7.2 mM of ATP, 0.54 mM of CoA, 6 mM of MgCl2, 0.8 mM of NADH and the inhibitory compound or the carrier (0.1% DMSO). The tubes are incubated for 20 minutes at 37° C. and the enzymatic reaction is then stopped by adding KOH (12%) and saponification for 30 minutes at 80° C. After acidification (3N HCl), the fatty acids are extracted twice with ethyl ether, evaporated under nitrogen before being taken up with a methanol/dichloromethane (3:1) mixture. The product of the reaction (C18:1) is separated from the substrate of the reaction (C18:0) by HPLC (Perkin Elmer, C18 reverse phase column) coupled to a on-line radioactivity detector (FlowOne). Enzymatic activity is calculated in picomoles of stearic acid converted into oleic acid per minute and per mg of protein. For each inhibitory compound, an inhibition % is determined relatively to the reference enzymatic activity (carrier 0.1% DMSO). Sterculic acid is the reference inhibitory compound (Gomez F. E., Bauman D. E., Ntambi J. M., Fox B. G. Effects of sterculic acid on stearoyl-CoA desaturase in differentiating […] adipocytes. Biochem Biophys Res Commun. 300 316-326 (2003)).

Row | Structure (SMILES) | inhibition at 10 µM (Human SCD-1) [%] | melting point [°C]
1 | Cn1c(=O)c(N2CCC(Oc3ccccc3C(F)(F)F)CC2)nn(C2CCCCC2=O)c1=O (stereo not drawn) [Example 86, 4-methyl-2-(2-oxo-cyclohexyl)-6-[4-(2-trifluoromethyl-phenoxy)-piperidin-1-yl]-2H-[1,2,4]triazine-3,5-dione] | 90 | 65
2 | Cn1nc(N2CCN(C(=O)c3cc(F)ccc3C(F)(F)F)CC2)c(=O)n(C)c1=O [Example 42, 6-[4-(5-fluoro-2-trifluoromethyl-benzoyl)-piperazin-1-yl]-2,4-dimethyl-2H-[1,2,4]triazine-3,5-dione] | 80 | 87
3 | Cc1ccccc1-n1nc(N2CCC(Oc3ccccc3C(F)(F)F)CC2)c(=O)n(C)c1=O [Example 79, 4-methyl-2-o-tolyl-6-[4-(2-trifluoromethyl-phenoxy)-piperidin-1-yl]-2H-[1,2,4]triazine-3,5-dione] | 54 | 106
4 | Cn1c(=O)c(N2CCC(Oc3ccccc3C(F)(F)F)CC2)nn(-c2ccc(F)cc2)c1=O [Example 80, 2-(4-fluoro-phenyl)-4-methyl-6-[4-(2-trifluoromethyl-phenoxy)-piperidin-1-yl]-2H-[1,2,4]triazine-3,5-dione] | 87 | 111
5 | COc1ccccc1-n1nc(N2CCC(Oc3ccccc3C(F)(F)F)CC2)c(=O)n(C)c1=O [Example 84, 2-(2-methoxy-phenyl)-4-methyl-6-[4-(2-trifluoromethyl-phenoxy)-piperidin-1-yl]-2H-[1,2,4]triazine-3,5-dione] | 53 | 128

Further lines, results first:

Row | inhibition at 10 µM (Human SCD-1) [%] | melting point [°C] | Structure (SMILES)
6 | 57 | 205 | Cn1c(=O)[nH]nc(N2CCN(Cc3ccccc3C(F)(F)F)CC2)c1=O [Example 64, 4-methyl-6-[4-(2-trifluoromethyl-benzyl)-piperazin-1-yl]-2H-[1,2,4]triazine-3,5-dione]
7 | 77 | 235 | Cn1c(=O)[nH]nc(N2CCN(C(=O)c3ccccc3C(F)(F)F)CC2)c1=O [Example 4, 4-methyl-6-[4-(2-trifluoromethyl-benzoyl)-piperazin-1-yl]-2H-[1,2,4]triazine-3,5-dione]
8 | 73 | 285 | O=C(c1ccccc1C(F)(F)F)N1CCN(c2c[nH]c(=O)[nH]c2=O)CC1 [Example 6, 5-[4-(2-trifluoromethyl-benzoyl)-piperazin-1-yl]-1H-pyrimidine-2,4-dione]
9 | 100 | 112 | Cn1c(=O)c(N2CCC(Oc3ccccc3C(F)(F)F)CC2)nn(CCO)c1=O [Example 89, 2-(2-hydroxy-ethyl)-4-methyl-6-[4-(2-trifluoromethyl-phenoxy)-piperidin-1-yl]-2H-[1,2,4]triazine-3,5-dione]
